Experimental data: US10676408B2, “Alkynylpyrazoles as nitrification inhibitors” (BASF SE, priority 2014, dated 2020)

System: nitrification
Test: Inhibition of nitrification in soil (48 well plate, ammonium sulfate, color reaction at 540 nm)
Type: cell-based
Settings: dose of 10 ppm in 1% DMSO; field soil (e.g. Limburgerhof); incubated at room temperature for up to 72 hrs; inhibition = 100 − % activity compared to control; read-out: IN (best inhibition value obtained for a compound)
Experimental: The compounds of the invention have been tested as follows in terms of the inhibition of nitrification:
Soil was sampled fresh from a field (e.g. Limburgerhof), dried and sieved through a 500 μm sieve. Approximately 200 mg of soil were placed into each well of a 48 well plate. Compounds, or DMSO alone, were added at a concentration of 10 ppm, dissolved in 1% DMSO. 6 μmol ammonium sulfate was added per well as well as 4.8 mg NaClO3.
Subsequently, the samples were incubated at room temperature for up to 72 hrs. After the incubation period 64 mg KCl were added and mixed. 25 μl of the supernatant were placed into a fresh plate and 260 μl of a color reaction solution (from Merck Nr 1.11799.0100) were added.
Measurements were taken with a Tecan plate Reader at 540 nm wavelength.
Inhibition is calculated as x=% activity compared to control, and converted to 100−x to give the value of inhibition, rather than activity.

SMILES | inhibition at 10 ppm
C#Cc1c(C)nn(C)c1C [Compound 3] | 27%
C#Cc1ccnn1C [Compound 2] | 24%
C#Cc1cc(C#C)n(C)n1 [Compound 1] | 55%
